Data set [1] can be described thus: In vivo toxicity, histopathology. More on the design: species or system mouse. Conditions: for Sternum side effect, mice affected per mice tested / Long bones side effect, mice affected per mice tested: two weeks. From the text: Number of cured mice, i.e. mice with no metastases at experimental end points, were score. Intestines, skin samples, hearts, thoracic skeletons and limbs of these mice were fixed in 10% formalin, phosphate buffered (Sigma). Soft tissues were embedded in paraffin blocks, sectioned and stained with haematoxylin & eosin. Bones were first decalcified for 2 weeks before embedding, sectioning and staining. An experienced pathologist analyzed tissues for histopathological abnormalities. […] Furthermore, the cartilage ossification zone at the ends of the long bones was analysed for defects in the hypertrophic zone.

For data set [2], the system named is MTO129 liver metastases. As to the kind of experiment: Mouse liver metastasis initiation/formation assay with MTOs. In kind it is in vivo. As to conditions: for Efficacy (Cure rate): two weeks, mice with no metastases; for metastatic tumor growth inhibitory capacity (bioluminescence): day 3 until day 14. An excerpt:
Mouse tumor organoids (MTOs) are derived from compound transgenic mice (conditional mutations in Apc, Kras, Trp53 and Tgfbr2, as well as bearing Lgr5-EGFP/CreER^T2) of the C57BL6/J strain and cultured as described in Tauriello et al. 2018 Nature 554(7693): 538-543. doi: 10.1038/nature25492. Organoids are tumor epithelial cells grown in a 3D matrix where they adopt an organotypic architecture, typically as spheroids with a lumen. In this way, cells retain a relatively normal polarity (which means that the outside surface, inside/luminal surface and cell-cell contacts are individually specialized), which is more physiological than in conventional 2D cell culture.
In all experiments described in present invention MTO129 were used (Tauriello et al. Nature. 2018).
In patients, treatment doses were reduced to 80 to 150 mg b.i.d in a regime of 14 days on-14 days off.
MTOs expressing a luciferase reporter were measured by bioluminescence imaging, using retroorbital injection of 50 μl 15 mg/ml D-luciferin potassium salt (Resem BV). Photons per second from the region spanning thorax/abdomen were quantified and normalized to the measure at the day of injection.
Control mice were treated with 150 μl of vehicle.
In the experiment shown in FIG. 13, potency of the indicated compounds to inhibit metastasis formation was assessed. Mice were treatments with indicated compounds started two days after MTO129 transplantation and continued during two weeks. Mice were sacrificed at 4 weeks post transplantation and liver metastases (LiMs) were counted by eye on fixed livers.

Data set [3] concerns TGFβ signaling (12×CAGA-Firefly_Luc reporter) in HEK293T cells. The experiment in a line: In vitro CAGA-Luciferase reporter assay. In kind it is cell-based. As to conditions: Homo sapiens, HEK-293T, 5 ng/ml TGFB1, 16h, read-out: IC50, TGFβ signaling inhibition (CAGA-Luciferase). The method, then: HEK293T cells were purchased from the ATCC and cultured in DMEM supplemented with L-glutamine and 10% fetal bovine serum (Life Technologies) at 37° C. and 5% CO2. The cells were seeded in 24-well plates and transfected with plasmids encoding 12×CAGA-Firefly_Luc and Tk-Renilla_Luc (75 and 10 ng per well, respectively), using polyethylenimine (Polysciences) as transfection reagent. After 7h, medium was replaced for starvation medium (DMEM+0.05% FBS). […] Luciferase activity was measured 16h later using the Dual Luciferase Assay kit (Promega): media were aspirated, and cells were lysed in 200 μl passive lysis buffer (kit) for 20 minutes. Bioluminescence was measured in a Berthold Lumat LB6507 luminometer (18 μl reagents, 10 seconds measurements). […]
When adding the luciferase substrate (luciferin) to the cell lysates, emission of light implies an active TGF-β pathway due to the production of pSMAD2/3-SMAD4, whereas no or little observed light would imply inhibition of the pathway by the inhibitor. Finally, the results could be normalized by the addition of Stop & Glo® which quenches the firefly luciferase enzyme/substrate and activates the Renilla transfection control, producing light which was again measured by the luminometer and used to normalize the data.
(A reporter such as luciferase makes a cellular process visible.)

The test system of data set [4] is MTO129 liver metastases. As to conditions: Tauriello et al. Nature 2018 (10×); cited from earlier work.
The target in data set [5] is T1, LigF (Sphingobium sp., UniProt P30347).
T1 construct: made in house; host or cells: E. coli BL21 (DE3) Rosetta lysS
T1 sequence (P30347 1-257): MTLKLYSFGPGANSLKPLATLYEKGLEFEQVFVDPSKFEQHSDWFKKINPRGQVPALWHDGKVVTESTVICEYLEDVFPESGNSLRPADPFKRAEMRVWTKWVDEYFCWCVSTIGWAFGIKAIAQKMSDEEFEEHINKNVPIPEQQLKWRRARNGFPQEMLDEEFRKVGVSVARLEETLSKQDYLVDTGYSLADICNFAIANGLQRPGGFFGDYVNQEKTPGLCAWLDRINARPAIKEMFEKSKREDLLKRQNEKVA
As to the kind of experiment: In vitro fluorescence assay with purified LigF. In kind it is biochemical, Sphingobium sp. strain SYK-6. As to conditions: 30 μM substrate, 15 μg/ml LigF, 1 mM glutathione, room temperature. The method, then:
To test the enzymatic activity of LigF, pure LigF protein was expressed by the Protein Expression Core Facility within the IRB Barcelona by inserting the His-tagged LigF DNA into a pOPINF vector and expressed in E. coli BL21 (DE3) Rosetta IysS cells. After expression and lysis, the protein was purified by using a nickel column followed by gel filtration. Noteworthy, the His tags were not removed from the protein after purification.
For in vitro fluorescence assays, purified LigF was diluted to 15 μg/ml in 20 mM Tris-HCl (pH 7.5), 1 mM glutathione and 30 μM 4-methylumbelliferone acetovanillone (MUAV) model compound was added.
Reactions were performed in a 96-well solid polystyrene plate (Corning) and measured with a top-well plate reader (BioTek FL600 fluorometer) at 360 excitation, 485 emission and sensitivity 100.
Due to a rapid rate of production of 4-methylumbelliferone (4-MU) owing to the cleavage of the beta-ether bond of compound MUAV, the protocol described by Masai (E. Masai et al., J. Bacteriol. 2003, 185, 1768-75) was modified by lowering the LigF enzyme concentration. With this optimized protocol, compound MUAV was incubated at room temperature in the presence of a buffer, glutathione (GSH) and LigF, and followed the cleavage by observing the production of 4-MU by fluorescence. […] Enzyme LigF cleaved product MUAV in approximately 30-40 min (FIG. 6).

Data set [6] concerns the target T2, LigF expressed in HEK293T cells (Sphingobium sp., UniProt P30347).
T2 construct: expressed in transfected cells; host or cells: HEK293T (lentiviral pLenti PGK puro)
The experiment in a line: Fluorescence assay in HEK293T cells stably expressing LigF. In kind it is cell-based. The method, then:
[…]. At time points after addition of various concentrations of MUAV, namely 10, 30, and 100 μM, culture medium was taken for measurements of 4-MU fluorescence.

These results are taken from patent US20220089600A1, “TGFß INHIBITOR AND PRODRUGS” (FUNDACIÓ INSTITUT DE RECERCA BIOMÈDICA (IRB BARCELONA), priority 2018, published 2022).

On to `Cc1cccc(-c2nn3c(c2-c2ccnc4ccc(C(N)=O)cc24)CCC3)n1` [Galunisertib, reference compound], for which the entries for the “Combined side effects per number tested” value in data set [1] (1x dose), in data set [1] (3x dose) and in data set [1] (9x dose) were 0/5, 1/9 and 6/10, respectively. Further, the “Toxicity (%)” value is recorded as 0% in data set [1] (1x dose), 11% in data set [1] (3x dose) and 60% in data set [1] (9x dose). Besides, the “Sternum side effect, mice affected per mice tested” value is recorded as 0/5 in data set [1] (1x dose), 1/4 in data set [1] (3x dose) and 4/7 in data set [1] (9x dose). In addition, the “pathological analysis of the skin and intestine” value in data set [1] (1× doses) is recorded as “No pathological anomalies”. The “Long bones side effect, mice affected per mice tested” value in data set [1] (3x dose) is 0/5; in data set [1] (9x dose), 2/3. In addition, the “toxic dose (toxicity >50%)” value in data set [1] (9× dose equivalent) worked out at 1440 mg/kg/day. Besides, the “Efficacy (Cure rate)” value in data set [2] (1x dose) is on record as 0%; in data set [2] (3x dose) it was about 70%; in data set [2] (9x dose), about 100%. The “metastatic tumor growth inhibitory capacity” value in data set [2] (9× dose, as seen in FIG. 3) was “highly effective”. Also, the “metastatic tumor growth inhibitory capacity (bioluminescence)” value was “not effective” in data set [2] (FIG. 4, 1× dose) and “mostly effective” in data set [2] (FIG. 4, 3× dose). Moreover, the “effective dose (>50% efficacy)” value in data set [2] (oral, divided b.i.d.) was found to be 480 mg/kg/day. The half-inhibitory concentration (IC50) in data set [3] amounted to 359 nM. Further, in data set [4], the “doses needed to effectively treat metastatic cancers” value is recorded as “up to 1600 mg/kg/day”.

For `COc1cc(C(=O)COc2ccc3c(C)cc(=O)oc3c2)ccc1O` [MUAV, 7-(2-(4-hydroxy-3-methoxyphenyl)-2-oxoethoxy)-4-methyl-2H-chromen-2-one], in data set [5], the “time for cleavage by LigF” value lay within 30 to 40 min. The “cleavage of ether bond (4-MU fluorescence)” value is given as “dose-dependent increase in fluorescence” in data set [6] (HEK293T expressing LigF, 10, 30, 100 μM) and “No cleavage” in data set [6] (HEK293T with empty vector (no LigF), 100 μM).

As a reminder, the IC50 is the point on the concentration scale where inhibition reaches its midpoint.
